From US11980602B2, “Cannabinoid prodrug compounds” (Firstlight Pharmaceuticals LLC, priority 2019, dated 2024)

Columns and labels:
[1] = low, dose dependent; cited from earlier work
[2] = test system: HPAF-II (pancreatic) tumor cells; test: MTT cell viability assay with HPAF-II pancreatic tumor cells; assay type: cell-based, human
Description: MTT Cell Viability Assay with HPAF-II (Pancreatic) Tumor Cells—
10 mM of COMPOUND A stock solution was made by dissolving the 8.2 mg of powder form of COMPOUND A in 1.468 mL of DMSO to form the stock solution. The stock solution was aliquoted to 0.6 mL microcentrifuge tubes with 20 μl of solution in each microcentrifuge tube.
Pancreatic cancer cell line HPAF-II was seeded in a 96-well plate with 5000 cells/well and incubated overnight at 37° C. The next day, cells were treated triplicate by removing cell media and replaced with fresh media containing COMPOUND A alone at increasing concentrations (10 μM, 20 μM, 20 μM, 50 μM, 75 μM, 100 μM 125 μM 150 μM, 175 μM 200 μM) as well as the combination of the 10 μM of COMPOUND A and Gemcitabine at increasing concentrations (0 μM, 0.01 μM, 0.05 μM, 0.1 μM, 0.5 μM, 1 μM, 5 μM, 10 μM). Drug vehicle (DMSO, Sigma) was used as a control for the treatment. Cells were then left to grow in the presence of the drugs for the following 72 hours.
After 72 hours, the media was discarded and the cells were incubated with MTT (3-(4,5-Dimethylthiazol-2-yl)-2,5-diphenyltetrazolim bromide) solution (5 mg/ml stock) at working concentration of 0.5 mg/ml in fresh cell growth media for 2 hours at 37° C. The reaction was stopped when the majority of the cells was stained. MTT solution was then aspirated and the plate was left to dry for several hour. Stained cells were then resuspended in 70 μl of DMSO and mixed well. The absorbance was read with the use of a plate reading spectrophotometer at the 570 nm. The CompuSyn data for the drug combination of COMPOUND A and Gemcitabine in each cell line was generated and analysed using the CompuSyn software which was set up by […] and published by ComboSyn, Inc.

phospho-ERK = test: Western blot of ERK phosphorylation in HPAF-11 pancreatic tumor cells; assay type: cell-based, human; conditions: HPAF-11 cells, 48 hours, DMEM 10% FBS, western blot (FIG. 3)
Description: Cells were treated for 48 hours with indicated concentrations of COMPOUND A in DMEM containing 10% FBS. Phosphorylation of ERK was assessed by western blot using antibodies that detect total and phospho-ERK. Actin detection was used as a loading control for total lysate protein.

[3] = test system: MKN1 (gastric) tumor cells; test: CELLTITER-GLO cell viability assay, MKN1; assay type: cell-based, human
Description: (§1) CELLTITER-GLO® Cell Viability Assay (a homogeneous method of determining the number of viable cells in culture based on quantitation of the ATP present, an indicator of metabolically active cells)
(§2) MKN1 (gastric), PC3 (prostate), NCIH727 (lung), and HCT116 (colorectal) tumor cell lines; Control=0.1% DMSO
(§3) To prepare 10 mM FL41 stock from powder dissolve 4.1 mg of FL41 powder into 0.74 ml DMSO-aliquot and store at −20 C until use DMSO-stock from Sigma or other suitable vendor-must be reagent or ACS grade or better.
(§4) Place 5000 cells per well (200 ul) in duplicate in their preferred media as shown in 96-well plate diagram immediately below. Reduce the final FBS (serum) concentration to 5% before adding cells to media. Incubate cells overnight and then remove old media carefully and add fresh media with 5% FBS and then either add DMSO alone, COMPOUND A alone or in combination with GEM (gemcitabine) in wells where noted at the final concentrations noted. Incubate the cells at 37 C in CO2 incubator for an additional 72 hours in presence of compounds. At the end of the 72-hour period add Promega Titerglo reagent to the wells and then measure luminescence to assess relative cell number.

[4] = test system: HCT116 (colorectal) tumor cells; test: CELLTITER-GLO cell viability assay, HCT116; assay type: cell-based, human; conditions: COMPOUND A alone, 72 hours, 5% FBS (FIG. 6)
Description: as §1, §2, §3, §4

[5] = test system: NCIH727 (lung) tumor cells; test: CELLTITER-GLO cell viability assay, H727; assay type: cell-based, human
Description: as §1, §2, §3, §4

[6] = test system: PC3 (prostate) tumor cells; test: CELLTITER-GLO cell viability assay, PC3; assay type: cell-based, human; conditions: COMPOUND A alone, 72 hours, 5% FBS
Description: as §1, §2, §3, §4

Compound	oral and oromucosal bioavailability [1]	growth of HPAFII (pancreatic) tumor cell line as compared to control ([2]; COMPOUND A alone)	increase in rate of the cell kill vs Compound A or gemcitabine alone ([2]; HPAF-II, 10 μM COMPOUND A combined with gemcitabine, 72 hours (FIG. 2))	kill of the pancreatic tumor cells ([2]; HPAF-II, 50 μM, 72 hours, MTT (FIG. 1)) [%]	kill of the tumor cells ([2]; HPAF-II, about 175 μM, 72 hours, MTT (FIG. 1))	phospho-ERK levels in tumor cells as compared to control (phospho-ERK)	growth of MKN1 (gastric) tumor cell line as compared to control ([3]; COMPOUND A alone, 72 hours, 5% FBS (FIG. 4))	effect on gemcitabine growth inhibition of human mkn1 gastric tumor cells ([3]; combination with gemcitabine, 72 hours (FIG. 5))	growth of HCT116 (colorectal) tumor cell line as compared to control [4]	growth of H727 (lung) tumor cell line as compared to control ([5]; COMPOUND A alone, 72 hours, 5% FBS (FIG. 7))	effect on gemcitabine growth inhibition of human h727 lung tumor cells ([5]; combination with gemcitabine, 72 hours (FIG. 8))	growth of PC3 (prostate) tumor cell line as compared to control [6]
C=C(C)[C@@H]1CCC(C)=C[C@H]1c1c(O)cc(CCCCC)cc1O [CBD, Cannabidiol]	about 35%											
C=C(C)[C@@H]1CCC(C)=C[C@H]1c1c(O)cc(CCCCC)cc1OC(=O)N[C@@H](C)C(=O)N[C@@H](CCC(=O)O)C(=O)O [COMPOUND A]		inhibit the growth	at least 10%	≥ 50	more than 80%	effectively decrease phospho-ERK levels	inhibit the growth	synergistic impact	inhibit the growth	inhibit the growth	potentiates	inhibit the growth
